In ChEMBL document CHEMBL5257025, “Artemisinin-Derived Dimers: Potent Antimalarial and Anticancer Agents” (J Med Chem, 2016):

What was measured:
T47D = test: Antiproliferative activity against human T47D cells assessed as inhibition of cell growth; type: functional, cell-based
M14 = test: Antiproliferative activity against human M14 cells assessed as growth inhibition incubated for 72 hrs by luminescence assay; type: functional, cell-based; settings: M14, 72 h
PC-3 = test: Antiproliferative activity against human PC-3 cells assessed as cell growth inhibition; type: functional, cell-based
HL-60 = test: Antiproliferative activity against human HL-60 cells assessed as reduction in cell viability incubated for 48 hrs by MTT assay; type: functional, cell-based; settings: HL-60, 48 h
OVCAR-3 = test: Antiproliferative activity against human OVCAR-3 cells assessed as reduction in cell viability; type: functional, cell-based
A498 = test: Antiproliferative activity against human A498 cells assessed as reduction in cell viability; type: functional, cell-based
DU-145 = test: Antiproliferative activity against human DU-145 cells assessed as reduction in cell viability; type: functional, cell-based
MCF7 [1] = test: Antiproliferative activity against human MCF7 cells assessed as reduction in cell viability measured after 48 hrs by SRB assay; type: functional, cell-based; settings: MCF7, 48 h
K562 = test: Antiproliferative activity against human K562 cells assessed as reduction in cell viability by MTT assay; type: functional, cell-based
LOX IMVI = test: Antiproliferative activity against human LOX IMVI cells assessed as cell growth inhibition; type: functional, cell-based
SK-OV-3 = test: Antiproliferative activity against human SK-OV-3 cells assessed as reduction in cell viability incubated for 48 hrs by MTT assay; type: functional, cell-based; settings: SK-OV-3, 48 h
CAKI-1 = test: Antiproliferative activity against human CAKI-1 cells assessed as reduction in cell viability after 48 hrs by SRB assay; type: functional, cell-based; settings: CAKI-1, 48 h
Ehrlich = test: Cytotoxicity against mouse Ehrlich cells assessed as growth inhibition at 100 ug/ml; type: functional, cell-based
SK-MEL [2] = test: Antiproliferative activity against human SK-MEL cells assessed as reduction in cell viability incubated for 48 hrs by MTT assay; type: functional, cell-based
XF498 = test: Antiproliferative activity against human XF498 cells assessed as reduction in cell viability incubated for 48 hrs by MTT assay; type: functional, cell-based; settings: XF498, 48 h
Plasmodium berghei = test: In vivo antimalarial activity against Plasmodium berghei infected mouse model assessed as survival time at 8 mg/kg, po in presence of Mefloquine hydrochloride
SK-MEL-2 = test: Antiproliferative activity against human SK-MEL-2 cells assessed as reduction in cell viability incubated for 48 hrs by MTT assay; type: functional, cell-based; settings: SK-MEL-2, 48 h
C2G cell line = test: Cytotoxicity against mouse C2G cells assessed as inhibition of cell growth measured after 72 hrs by MTT assay; type: functional, cell-based
[3] = Cytotoxicity against human HFF cells assessed as cell growth inhibition measured after 48 hrs by MTT assay; type: toxicity, cell-based
[4] = Antiproliferative activity against human 1205Lu cells assessed as reduction in cell growth; type: functional, cell-based
[5] = Cytotoxicity against rat MTLn3 cells assessed as cell growth inhibition; type: toxicity, cell-based
HeLa = test: Antiproliferative activity against human Hela cells assessed as cell growth inhibition measured after 48 hrs by MTT assay; type: functional, cell-based
Plasmodium falciparum [6] = test: Antimalarial activity against Plasmodium falciparum NF54 assessed as reduction in cell growth; type: functional, organism-based
HCT-116 = test: Antiproliferative activity against human HCT-116 cells assessed as growth after 48 hrs by MTT assay; type: functional, cell-based; settings: HCT-116, 48 h
TRAMP-C2H = test: Cytotoxicity against mouse TRAMP-C2H cells assessed as inhibition of cell growth measured after 72 hs by MTT assay; type: functional, cell-based
C2D cell line = test: Cytotoxicity against mouse C2D cell line assessed as inhibition of cell growth measured after 72 hrs by MTT assay; type: functional, cell-based
Plasmodium falciparum [7] = test: Antimalarial activity against Plasmodium falciparum NF54 assessed as inhibition of cell growth incubated for 72 hrs by SYBR Green I staining based fluorescence analysis; type: functional, organism-based; settings: NF54, 72 h
[8] = Cytotoxicity against CHO cells assessed as reduction in cell viability; type: toxicity, cell-based, Cricetulus griseus; settings: chinese hamster, read-out: TC50 (the source's name)
Plasmodium falciparum [9] = test: Antimalarial activity against Plasmodium falciparum 3D7 assessed as inhibition of malarial growth; type: functional, organism-based
Plasmodium falciparum [10] = test: microbe, parasite or virus in culture; settings: K1
Description: Antiplasmodial activity against Plasmodium falciparum K1 assessed as inhibition of parasitic growth

Plasmodium falciparum [11] = test: Antimalarial activity against Plasmodium falciparum D10 assessed as inhibition of parasitic growth; type: functional, organism-based
Plasmodium falciparum [12] = test: microbe, parasite or virus in culture; settings: Dd2
Description: Antiplasmodial activity against Plasmodium falciparum Dd2 assessed as inhibition of parasitic growth

[13] = Cytotoxicity against African green monkey Vero cells; type: toxicity, cell-based; settings: chlorocebus sabaeus, read-out: TC50 (the source's name)
Plasmodium falciparum [14] = test: microbe, parasite or virus in culture; settings: D6
Description: Antiplasmodial activity against Plasmodium falciparum D6 assessed as inhibition of parasitic growth

Plasmodium falciparum [15] = test: microbe, parasite or virus in culture; settings: W2
Description: Antiplasmodial activity against Plasmodium falciparum W2 assessed as inhibition of cell growth

UACC-62 = test: Growth inhibition of human UACC-62 cells assessed as cell growth inhibition measured after 48 hrs by MTT assay; type: functional
TK-10 = test: Growth inhibition of human TK-10 cells assessed as cell growth inhibition measured after 48 hrs by MTT assay; type: functional
MCF7 [16] = test: Growth inhibition of human MCF7 cells assessed as cell growth inhibition incubated for 48 hrs by MTT assay; type: functional
[17] = Antiproliferative activity against human YD-10B cells assessed as cell growth inhibition measured after 72 hrs by MTT assay; type: functional, cell-based
BeWo = test: Antiproliferative activity against human BeWo cells assessed as reduction in cell viability after 72 hrs by MTT assay; type: functional, cell-based
P388 = test: Antiproliferative activity against mouse P388 cells assessed as cell growth inhibition incubated for 72 hrs by MTT assay; type: functional, cell-based; settings: P388, 72 h
HT-29 = test: cells; settings: Homo sapiens, HT-29, 72 h
EL4 = test: Antiproliferative activity against mouse EL4 cells assessed as cell growth inhibition incubated for 72 hrs by MTT assay; type: functional, cell-based; settings: EL4, 72 h
[18] = Cytotoxicity against pig LLC-PK1 cells; type: toxicity, cell-based, Sus scrofa; settings: read-out: TC50 (the source's name)
BT-549 = test: Antiproliferative activity against human BT-549 cells assessed as reduction in cell viability incubated for 48 hrs by MTT assay; type: functional, cell-based; settings: BT-549, 48 h
KB = test: Antiproliferative activity against human KB cells assessed as reduction in cell viability incubated for 48 hrs by MTT assay; type: functional, cell-based
SK-MEL [19] = test: Antiproliferative activity against human SK-MEL cells assessed as reduction in cell growth inhibition; type: functional, cell-based

## C[C@@H]1CC[C@H]2[C@@H](C)C(OCC(COC3O[C@H]4O[C@@]5(C)CC[C@H]6[C@H](C)CC[C@@H]([C@H]3C)[C@@]46OO5)OC(=O)CCC(=O)O)O[C@H]3O[C@@]4(C)CC[C@@H]1[C@]32OO4 (some centres undefined)
T47D
  IC50: 75 nM
M14
  IC50: 30000 nM
PC-3
  IC50: 40 nM
HL-60
  IC50: 60 nM
OVCAR-3
  IC50: 250 nM
A498
  IC50: 20000 nM
DU-145
  IC50: 20000 nM
MCF7 [1]
  IC50: 200 nM
K562
  IC50: 200 nM
LOX IMVI
  IC50: 80 nM
SK-OV-3
  IC50: 25000 nM
CAKI-1
  IC50: 30000 nM

## C[C@H]1[C@@H](O[C@H]2O[C@H]3O[C@@]4(C)CC[C@H]5[C@H](C)CC[C@@H]([C@H]2C)[C@@]35OO4)O[C@H]2O[C@@]3(C)CC[C@H]4[C@H](C)CC[C@@H]1[C@@]24OO3
Ehrlich
  IC50: 31200 nM

## C[C@H]1[C@H](O[C@H]2O[C@H]3O[C@@]4(C)CC[C@H]5[C@H](C)CC[C@@H]([C@H]2C)[C@@]35OO4)O[C@H]2O[C@@]3(C)CC[C@H]4[C@H](C)CC[C@@H]1[C@@]24OO3
Ehrlich
  IC50: 3600 nM

## C[C@@H]1CC[C@H]2[C@@H](C)C(CCC(=O)NCCCN3CCN(CCCNC(=O)CCC4O[C@H]5O[C@]6(C)CC[C@H]7[C@H](C)CC[C@@H]([C@H]4C)[C@@]57OO6)CC3)O[C@H]3O[C@]4(C)CC[C@@H]1[C@]32OO4 (some centres undefined)
SK-MEL [2]
  IC50: 450 nM
XF498
  IC50: 460 nM

## C[C@@H]1CC[C@H]2[C@@H](C)C(CC(CC3O[C@@H]4O[C@]5(C)CC[C@@H]6[C@@H](C)CC[C@H]([C@@H]3C)[C@]46OO5)C[Si](C)(C)C)O[C@H]3O[C@@]4(C)CC[C@@H]1[C@]32OO4 (some centres undefined)
Plasmodium berghei
  survival time: > 57 days

## C[C@@H]1CC[C@H]2[C@@H](C)C(OCC(=O)COC3O[C@@H]4O[C@]5(C)CC[C@@H]6[C@@H](C)CC[C@H]([C@@H]3C)[C@]46OO5)O[C@H]3O[C@@]4(C)CC[C@@H]1[C@]32OO4 (some centres undefined)
SK-MEL-2
  IC50: 560 nM

## C[C@@H]1CC[C@H]2[C@@H](C)C(CC(CO)CC3O[C@H]4O[C@@]5(C)CC[C@H]6[C@H](C)CC[C@@H]([C@H]3C)[C@@]46OO5)O[C@H]3O[C@@]4(C)CC[C@@H]1[C@]32OO4 (some centres undefined)
C2G cell line
  IC50: 15.4 nM
[3]
  IC50 at 48 h: 48100 nM
[4]
  IC50: 4900 nM
[5]
  IC50: 43 nM
HeLa
  IC50: 1060 nM
Plasmodium falciparum [6]
  IC50: 0.87 nM
HCT-116
  IC50: 100 nM
TRAMP-C2H
  IC50: 9.2 nM
C2D cell line
  IC50: 18.5 nM

## C[C@H]1[C@H](CC(F)(F)c2ccc(C(F)(F)C[C@H]3O[C@H]4O[C@@]5(C)CC[C@H]6[C@H](C)CC[C@@H]([C@H]3C)[C@@]46OO5)cc2)O[C@H]2O[C@@]3(C)CC[C@H]4[C@H](C)CC[C@@H]1[C@@]24OO3
Plasmodium falciparum [7]
  IC50: 15 nM

## C[C@H]1[C@@H](O)O[C@H]2O[C@@]3(C)CC[C@H]4[C@H](C)CC[C@@H]1[C@@]24OO3
[8]
  CC50: 148000 nM
Plasmodium falciparum [9]
  IC50: 2.09 nM
Plasmodium falciparum [10]
  IC50: 2.09 nM
Plasmodium falciparum [11]
  IC50: 2.09 nM
Plasmodium falciparum [12]
  IC50: 2.09 nM
[13]
  CC50: 1410 nM
Plasmodium falciparum [14]
  IC50: 2.09 nM
Plasmodium falciparum [15]
  IC50: 2.09 nM

## C[C@@H]1CC[C@H]2[C@@H](C)C(OCCC(CCCNc3ccnc4ccc(Cl)cc34)CCOC3O[C@@H]4O[C@]5(C)CC[C@@H]6[C@@H](C)CC[C@H]([C@@H]3C)[C@]46OO5)O[C@H]3O[C@@]4(C)CC[C@@H]1[C@]32OO4 (some centres undefined)
Plasmodium falciparum [9]
  IC50: 8.7 nM
UACC-62
  GI50: 50 nM
TK-10
  GI50: 80 nM
MCF7 [16]
  GI50: 30 nM

## C[C@@H]1CC[C@H]2[C@@H](C)C(CCSCCC3O[C@@H]4O[C@]5(C)CC[C@@H]6[C@@H](C)CC[C@H]([C@@H]3C)[C@]46OO5)O[C@H]3O[C@@]4(C)CC[C@@H]1[C@]32OO4 (some centres undefined)
[17]
  IC50: 9300 nM
BeWo
  IC50: 22800 nM
P388
  IC50: 640 nM
MCF7 [1]
  IC50: 30 nM
HT-29
  IC50: 390 nM

## C[C@@H]1CC[C@H]2[C@@H](C)C(CC(CC3O[C@@H]4O[C@]5(C)CC[C@@H]6[C@@H](C)CC[C@H]([C@@H]3C)[C@]46OO5)C(=O)N/N=C/c3ccccc3O)O[C@H]3O[C@@]4(C)CC[C@@H]1[C@]32OO4 (some centres undefined)
[5]
  IC50: 52 nM

## C[C@@H]1CC[C@H]2[C@@H](C)C(OCC(COC3O[C@H]4O[C@@]5(C)CC[C@H]6[C@H](C)CC[C@@H]([C@H]3C)[C@@]46OO5)=NO)O[C@H]3O[C@@]4(C)CC[C@@H]1[C@]32OO4 (some centres undefined)
T47D
  IC50: 30 nM
M14
  IC50: 15000 nM
PC-3
  IC50: 20 nM
HL-60
  IC50: 40 nM
OVCAR-3
  IC50: 200 nM
A498
  IC50: 6500 nM
DU-145
  IC50: 15000 nM
MCF7 [1]
  IC50: 60 nM
K562
  IC50: 150 nM
LOX IMVI
  IC50: 55 nM
SK-OV-3
  IC50: 15000 nM
CAKI-1
  IC50: 13000 nM

## C[C@@H]1CC[C@H]2[C@@H](C)C(OCCCN3CC[N+](CCCOC4O[C@@H]5O[C@]6(C)CC[C@@H]7[C@@H](C)CC[C@H]([C@@H]4C)[C@]57OO6)(CCNc4ccnc5cc(Cl)ccc45)CC3)O[C@H]3O[C@@]4(C)CC[C@@H]1[C@]32OO4 (some centres undefined)
Plasmodium falciparum [9]
  IC50: 29.5 nM
UACC-62
  GI50: 40 nM
TK-10
  GI50: 80 nM
MCF7 [16]
  GI50: 30 nM

## CC(=O)O[C@H]1C(=O)[C@@]2(C)[C@H]([C@H](OC(=O)c3ccccc3)[C@]3(O)C[C@H](OC(=O)[C@H](O)[C@@H](NC(=O)c4ccccc4)c4ccccc4)C(C)=C1C3(C)C)[C@]1(OC(C)=O)CO[C@@H]1C[C@@H]2O [PACLITAXEL]
[17]
  IC50: 0.1 nM
EL4
  IC50: 0.1 nM
BeWo
  IC50: 0.1 nM
[18]
  CC50: 4390 nM
BT-549
  IC50: 0.1 nM
P388
  IC50: 0.1 nM
MCF7 [1]
  IC50: 0.1 nM
HT-29
  IC50: 0.1 nM
KB
  IC50: 0.1 nM
SK-OV-3
  IC50: 0.1 nM
SK-MEL [19]
  IC50: 0.1 nM

## C[C@H]1[C@@H](CC(F)(F)c2ccc(C(F)(F)C[C@H]3O[C@H]4O[C@@]5(C)CC[C@H]6[C@H](C)CC[C@@H]([C@H]3C)[C@@]46OO5)cc2)O[C@H]2O[C@@]3(C)CC[C@H]4[C@H](C)CC[C@@H]1[C@@]24OO3
Plasmodium falciparum [7]
  IC50: 28 nM
